According to patent publication US20150050299A1, “METHODS FOR ENHANCING IMMUNE RESPONSE” (priority 2010, published 2015):

Columns and labels:
[1] = test system: squamous cell carcinomas (SCCs); format: in vivo
Procedure: The combination therapy of polyamine biosynthesis/uptake inhibition was tested against the K6/ODC transgenic mouse murine squamous cell carcinoma (SCC) model recently described.^98 The K6/ODC model was developed to assess whether ODC overexpression was a contributing cause, or an effect of malignant transformation. […] While most skin tumorigenesis models yielded benign squamous papillomas as the predominant tumor type, when the K6/ODC transgene was expressed on the FVB/N strain background, the majority of tumors that developed were aggressive squamous cell carcinomas. These SCCs appeared as early as 5 weeks after treatment and in high multiplicities (up to four tumors per mouse), making this a very efficient model for SCC induction. Using this model, we were thus able to conclude that over-expression of ODC is a sufficient condition for tumor promotion in mouse skin.^99
We conducted an in vivo anti-tumor trial of DFMO combined with either the D-C16-acyl Lys-spm conjugate AMXT 1501 (FIG. 4) or the L-C16-alkyl AMXT 1569 analog (FIG. 5) in the K6/ODC SCC model.
The concentration of AMXT 1501 was 14 μg/ml, or an average daily dose of ˜50-65 μg (equivalent to ˜3 mg/kg/d). […] It is expected that great improvements in the oral bioavailability of AMXT 1501 would result from insightful drug formulation.

[2] = target: CXCR4 receptor (Homo sapiens, UniProt P61073); test: binding of radiolabeled SDF-1α to the CXCR4 receptor; details: 10 μM
CXCR4 receptor, sequence (P61073 whole entry): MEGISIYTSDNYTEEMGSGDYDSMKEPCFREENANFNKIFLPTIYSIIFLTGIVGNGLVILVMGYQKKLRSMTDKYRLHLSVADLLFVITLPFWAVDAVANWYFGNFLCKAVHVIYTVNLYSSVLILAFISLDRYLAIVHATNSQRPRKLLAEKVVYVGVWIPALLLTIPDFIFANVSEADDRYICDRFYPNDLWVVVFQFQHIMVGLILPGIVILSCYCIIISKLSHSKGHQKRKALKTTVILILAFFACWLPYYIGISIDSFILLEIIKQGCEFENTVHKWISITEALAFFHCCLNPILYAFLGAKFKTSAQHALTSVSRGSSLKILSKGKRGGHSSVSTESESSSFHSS
Procedure: Alternative mechanisms might also be responsible for the observed immune inducing effects of PBT. The FDA-approved compound, plerixafor (also known as AMD3100), is used as a hematopoietic stem cell mobilizer for use in combination with granulocyte-colony stimulating factor (G-CSF) for peripheral blood collection and subsequent autologous transplantation in patients with non-Hodgkin's lymphoma and multiple myeloma. […] We tested the effect of 10 μM AMXT 1501 on the binding of radiolabeled SDF-1α to the CXCR4 receptor and found no inhibition. […] Since an interaction between AMXT 1501 and the CXCR4 receptor was not observed, a polyamine-dependant mechanism of immune-suppression is maintained.

[3] = target: human TLR 2 (Homo sapiens, UniProt O60603); test: Toll-Like Receptor (TLR) screening assay, TLR2; format: cell-based; details: 10 μM; control HKLM
human TLR 2, sequence (O60603 21-784): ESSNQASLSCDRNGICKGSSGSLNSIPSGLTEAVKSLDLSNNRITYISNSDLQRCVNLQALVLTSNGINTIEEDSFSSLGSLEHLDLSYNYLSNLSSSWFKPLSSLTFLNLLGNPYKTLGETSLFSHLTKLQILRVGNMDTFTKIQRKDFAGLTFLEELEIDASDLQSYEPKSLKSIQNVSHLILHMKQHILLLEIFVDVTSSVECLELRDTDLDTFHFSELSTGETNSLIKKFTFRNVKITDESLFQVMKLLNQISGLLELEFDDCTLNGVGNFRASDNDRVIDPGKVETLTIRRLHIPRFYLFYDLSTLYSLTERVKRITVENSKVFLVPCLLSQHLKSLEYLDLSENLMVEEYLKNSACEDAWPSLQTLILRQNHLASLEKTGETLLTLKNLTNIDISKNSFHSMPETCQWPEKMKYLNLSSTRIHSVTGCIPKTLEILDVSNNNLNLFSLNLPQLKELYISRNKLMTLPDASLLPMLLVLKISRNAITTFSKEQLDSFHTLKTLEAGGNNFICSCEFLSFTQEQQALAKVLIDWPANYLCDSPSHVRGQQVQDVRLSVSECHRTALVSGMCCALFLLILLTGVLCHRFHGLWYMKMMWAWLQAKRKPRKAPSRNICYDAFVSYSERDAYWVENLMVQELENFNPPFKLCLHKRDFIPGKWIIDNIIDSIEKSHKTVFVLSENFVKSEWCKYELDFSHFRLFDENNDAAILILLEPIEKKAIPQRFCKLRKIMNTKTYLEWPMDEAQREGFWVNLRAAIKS

[4] = target: T1, human TLR8 (Homo sapiens, UniProt Q9NR97); test: Toll-Like Receptor (TLR) screening assay, TLR8; format: cell-based; details: 10 μM
T1 sequence (Q9NR97 27-1041): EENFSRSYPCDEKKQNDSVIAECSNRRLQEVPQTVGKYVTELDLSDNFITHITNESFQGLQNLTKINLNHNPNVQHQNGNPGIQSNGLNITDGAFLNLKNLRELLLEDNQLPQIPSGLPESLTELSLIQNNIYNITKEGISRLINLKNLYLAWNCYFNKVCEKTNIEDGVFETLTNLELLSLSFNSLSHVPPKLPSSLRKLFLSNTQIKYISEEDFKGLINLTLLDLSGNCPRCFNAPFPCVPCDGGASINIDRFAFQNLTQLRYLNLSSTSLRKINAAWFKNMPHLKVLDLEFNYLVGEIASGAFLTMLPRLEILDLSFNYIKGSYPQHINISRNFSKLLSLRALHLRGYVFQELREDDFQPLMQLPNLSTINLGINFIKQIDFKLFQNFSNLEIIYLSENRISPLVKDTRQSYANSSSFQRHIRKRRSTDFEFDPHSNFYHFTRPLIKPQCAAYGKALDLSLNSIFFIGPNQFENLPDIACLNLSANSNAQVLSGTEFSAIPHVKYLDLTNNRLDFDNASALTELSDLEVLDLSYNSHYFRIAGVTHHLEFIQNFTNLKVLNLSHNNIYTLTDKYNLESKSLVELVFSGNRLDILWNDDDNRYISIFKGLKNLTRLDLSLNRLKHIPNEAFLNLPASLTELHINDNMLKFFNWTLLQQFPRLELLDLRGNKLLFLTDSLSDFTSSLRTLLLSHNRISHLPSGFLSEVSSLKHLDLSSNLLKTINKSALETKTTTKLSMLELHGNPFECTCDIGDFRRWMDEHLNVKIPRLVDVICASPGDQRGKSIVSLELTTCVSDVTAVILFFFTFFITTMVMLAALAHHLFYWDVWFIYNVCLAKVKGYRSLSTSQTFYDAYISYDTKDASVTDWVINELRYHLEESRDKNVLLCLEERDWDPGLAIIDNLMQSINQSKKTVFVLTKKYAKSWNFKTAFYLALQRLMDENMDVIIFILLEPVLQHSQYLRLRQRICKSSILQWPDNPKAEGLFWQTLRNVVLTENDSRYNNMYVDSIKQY

[5] = test system: human toll-like receptors (TLR); test: Toll-like receptor test, overall statement; format: cell-based; details: 10 μM
Description: While the role of HMGB1 in cancer biology is complex, the influence of spermine on this danger signaling biomolecule is well established. […] It could be that the tumor's propensity to secrete higher concentrations of spermine allow them to hide from the immune system by negating HMGB1 ability to stimulate an immune response. Therefore, the balance between pro-immune effects of HMGB1 and the counter-immune effects of spermine mediated through this pathway may be shifted by using PBT.

[6] = test system: cultured cancer cell types (including MDA-MB-231, PC-3, A375 and SK-OV-3 among others); test: activity against cultured cancer cells in combination with DFMO; format: cell-based
Description: Cancer cells can circumvent the ability of drugs such as α-difluoromethylornithine (DFMO) based on inhibition of polyamine biosynthesis, from completely depleting their internal polyamines by the importation of these molecules from external sources. […] The resulting novel two-drug combination therapy targeting cellular polyamine metabolism has shown exceptional efficacy against cutaneous squamous cell carcinomas (SCCs) in a transgenic ornithine decarboxylase (ODC) mouse model developed by us for the study of skin cancer. […] The availability of a potent polyamine transport inhibitor allows, for the first time, for a real test of the hypothesis that starving cells of polyamines will lead to objective clinical response. This therapy is molecularly-targeted, relatively nontoxic at the proposed dose, and consists of both a very well-characterized drug and a member of a novel chemical class.

In the case of `CCCCCCCCCCCCCCCC(=O)NCCCC[C@@H](N)C(=O)NCCCNCCCCNCCCN` [AMXT 1501, D-Lys(C16acyl)-Spm], the “anti-tumor response to single agent” value ([1]; agent alone) is reported as “did not reduce tumor growth”, the “potency to inhibit tumor growth in combination with DFMO, AMXT 1501 versus AMXT 1569” value ([1]; combined with DFMO) is reported as “slightly better results” and the “inhibition of radiolabeled SDF-1α binding” value [2] is reported as “no inhibition”. The “stimulatory effect on TLR2” value [3] was 19 % of control, the “activity on TLR8” value [4] was “no significant activity” and the “stimulatory effect on human toll-like receptors” value [5] was “no significant stimulatory effect”. For the same compound, the “nature of cell culture effects” value [6] was “cytostatic and not cytotoxic” and the “potency compared with AMXT 1426” value ([6]; in combination with DFMO) was “several orders of magnitude higher potency”.
